The results in this text go back to US20040235831A1, “Composition for caring for the hair or the eyelashes, containing a pyrazolecarboxamide compound, use thereof for stimulating the growth of the hair and the eyelashes and/or for reducing their loss” (SOCIETE L'OREAL, S.A., priority 2002, published 2004).

The target of one assay is T1, PGF synthase (PGFS) (Homo sapiens, UniProt P42330).
T1 construct: made in house
T1 sequence (P42330 1-323): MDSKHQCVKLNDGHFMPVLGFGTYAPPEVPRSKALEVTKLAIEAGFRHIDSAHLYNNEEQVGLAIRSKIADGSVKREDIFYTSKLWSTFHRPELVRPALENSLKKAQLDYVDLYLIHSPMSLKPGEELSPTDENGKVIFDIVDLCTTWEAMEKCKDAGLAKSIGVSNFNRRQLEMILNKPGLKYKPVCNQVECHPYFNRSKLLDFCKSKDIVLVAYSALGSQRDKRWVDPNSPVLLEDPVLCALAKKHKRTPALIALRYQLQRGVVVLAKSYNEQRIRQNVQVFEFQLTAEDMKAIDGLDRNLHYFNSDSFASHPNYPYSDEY
Put plainly: Test on PGF synthase (spectrophotometric, 9,10-phenanthrenequinone/β-NADPH, 340 nm). It counts as biochemical. The following applies: concentration that inhibits 50% of the enzymatic activity of PGF synthase. The procedure: The enzyme PGFS is obtained as described in document FR-A-02/05067, at a concentration of 0.5 mg/ml, as a suspension in a suitable medium, and blocked at −80° C. For the purposes of the test, this suspension is thawed and stored in ice.
In parallel, a 100 mM, pH 6.5 Tris buffer containing 20 μM of 9,10-phenanthrenequinone* (P2896, Sigma-Aldrich, L'isle D'Abeau Chesne, BP 701, 38297, Saint Quentin Fallavier) and 100 μM of β-NADPH (N1630, Sigma-Aldrich, L'isle D'Abeau Chesne, BP 701, 38297, Saint Quentin Fallavier) is prepared in a brown flask (protected from light).
*A stock solution with a titre of 1 mM is prepared in absolute ethanol and brought to 40° C.; the flask is placed in an ultrasound cuvette to facilitate the dissolution of the product.
0.950 ml of this buffer (brought to 37° C. beforehand) is introduced into the cuvette of a spectrophotometer (Perkin-Elmer, Lambda 2) thermostatically maintained at 37° C., the measuring wavelength of which is set at 340 nm. 0.05 ml of enzymatic suspension at 37° C. is introduced into the cuvette concomitantly with the recording (corresponding to a reduction in the optical density at 340 nm). The maximum reaction rate is recorded.
The test values (containing compound (I)) are compared with the control value (without compound (I)); the results indicated represent the percentage of inhibition of PGFS at a concentration of 50 μM.

A further assay addresses T2, 15-PGDH (Homo sapiens, UniProt P15428).
T2 construct: made in house
T2 sequence (P15428 1-266): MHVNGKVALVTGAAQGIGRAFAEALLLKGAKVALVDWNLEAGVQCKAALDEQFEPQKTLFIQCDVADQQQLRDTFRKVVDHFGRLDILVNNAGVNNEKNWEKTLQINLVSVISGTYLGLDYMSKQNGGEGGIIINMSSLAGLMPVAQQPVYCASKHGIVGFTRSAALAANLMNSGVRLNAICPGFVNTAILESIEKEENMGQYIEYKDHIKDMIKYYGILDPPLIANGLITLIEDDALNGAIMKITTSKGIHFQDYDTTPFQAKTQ
The experiment in a line: Test on 15-PGDH (spectrophotometric, PGE2/β-NAD, 340 nm). The assay is classed as biochemical. On the procedure:
The enzyme 15-PGDH is obtained as described in patent application FR 02/05067 filed in the name of L'Oréal, as a suspension in a medium adjusted to a concentration of 0.3 mg/ml and then blocked at −80° C. For the purposes of the test, this suspension is thawed and stored in ice.
In parallel, a 100 mM, pH 7.4 Tris buffer containing 0.1 mM of dithiothreitol (D5545, Sigma-Aldrich, L'isle D'Abeau Chesne, BP 701, 38297, Saint Quentin Fallavier), 1.5 mM of β-NAD (N6522, Sigma-Aldrich, L'isle D'Abeau Chesne, BP 701, 38297, Saint Quentin Fallavier), and 50 μM of prostaglandin E2 (P4172, Sigma-Aldrich, L'isle D'Abeau Chesne, BP 701, 38297, Saint Quentin Fallavier) is prepared.
0.965 ml of this buffer (brought to 37° C. beforehand) is introduced into the cuvette of a spectrophotometer (Perkin-Elmer, Lambda 2) thermostatically maintained at 37° C., the measuring wavelength of which is set at 340 nm. 0.035 ml of enzymatic suspension at 37° C. is introduced into the cuvette concomitantly with the recording (corresponding to an increase in the optical density at 340 nm). The maximum reaction rate is recorded.

The term IC50 denotes the concentration at which inhibition is half-maximal. A high value points to weaker potency. As for `COc1ccc(-n2ncc(C(=O)N3CCN(C)CC3)c2C)cc1` [Compound 2], the values for the IC50 at PGF synthase (PGFS) and against 15-PGDH (concentration that inhibits 50% of the enzymatic activity of 15-PGDH) were greater than 75 µM and 10 µM, respectively. Also, on 15-PGDH (IC50fs/IC50dh ratio (PGF synthase vs 15-PGDH)), the Selectivity is on record as greater than 7.5.
